Source: patent US20110224079A1, “SPIROHETEROCYCLIC N-OXYAMIDES AS PESTICIDES” (SYNGENTA CROP PROTECTION LLC, priority 2008, published 2011)

Columns and labels:
[1] = tested on: Plutella xylostella (diamond back moth); assay: Example B5: activity against Plutella xylostella, artificial diet in microtiter plate (larvicide, preventive); assay type: in vivo; conditions: 120 h, L2 larvae, 5 days, read-out: activity (larval mortality, antifeedant, growth regulation)
Experimental: Activity Against Plutella xylostella (Diamond Back Moth)
(Larvicide, Feeding/Residual Contact Activity, Preventive)
24-well microtiter plate (MTP) with artificial diet is treated with test solutions by pipetting. After drying, the MTP's are infested with larvae (L2)(10-15 per well). After an incubation period of 5 days, samples are checked for larval mortality, antifeedant and growth regulation.

[2] = tested on: Aphis Craccivora (cowpea aphid); assay: Example B11: translaminar activity against Aphis craccivora on French bean leaves; assay type: in vivo; conditions: 120 h, upper leaf side painted, aphids on lower side, 5 days
Experimental: Translaminar Activity Against Aphis Craccivora (Cowpea Aphid)
French bean leaves (Phaseolus vulgaris) are infested with about 20 mixed age individuals on the lower leaf side using clip cages. 1 day after the infestation, the upper side of the leaves is treated with the test solution by painting. 5 days later, samples are checked for mortality.

[3] = tested on: Aonidiella Aurantii (red scale); assay: Example B12: activity against Aonidiella aurantii, dipped potato tubers; assay type: in vivo; conditions: 6-8 weeks after application, read-out: activity (number of crawlers of the next generation)
Excerpt: Activity Against Aonidiella Aurantii (Red Scale)
Treatment of potato tubers by dipping the in the test solution. One day later, tubers are infested with about 50 crawlers. 6-8 weeks after application samples are checked for the number of crawlers of the next generation (compared to the non treated samples).

[4] = tested on: Myzus persicae (green peach aphid); assay: Example B17: activity against Myzus persicae on sprayed pepper plants (feeding/residual contact); assay type: in vivo; conditions: 144 h, infested pepper plants sprayed, 6 days
[5] = tested on: Myzus persicae (green peach aphid); assay: Example B13: drench activity against Myzus persicae, pea seedlings in field soil; conditions: 168 h, read-out: drench activity (mortality)
[6] = tested on: Nilaparvata lugens (brown rice planthopper); assay: Example B8: activity against Nilaparvata lugens, sprayed rice seedlings (larvicide, feeding/contact); conditions: in Oryza sativa, read-out: activity (mortality, growth regulation, effects on F1 generation)
[7] = tested on: Myzus persicae (green peach aphid); assay: Example B2: activity against Myzus persicae, pea seedling roots in test solution (systemic/feeding, curative); conditions: 144 h, read-out: activity (mortality)
[8] = tested on: Myzus persicae (green peach aphid); assay: Example B1: activity against Myzus persicae, sprayed sunflower leaf discs (feeding/residual contact, preventive); conditions: foliar, 144 h, read-out: activity (mortality)
[9] = tested on: Thrips tabaci (onion thrips); assay: Example B3: activity against Thrips tabaci, sprayed sunflower leaf discs (feeding/residual contact, preventive); assay type: in vivo; conditions: foliar, 144 h, mixed population, 6 days
Excerpt: Activity Against Thrips tabaci (Onion Thrips)
(Mixed Population, Feeding/Residual Contact Activity, Preventive)

[10] = tested on: Bemisia tabaci (tobacco white fly); assay: Example B7: activity against Bemisia tabaci, sprayed bean plants (larvicide, contact/feeding); assay type: in vivo; conditions: 504 h, bean plants with N-2 nymphs sprayed, three weeks, read-out: activity (efficacy, number of emerged adults)
Experimental: Activity Against Bemisia tabaci (Tobacco White Fly)
(Larvicide, Contact/Feeding)
Bean plants are infested with 20-30 adults that were removed after a 4 day egg-laying period. After another 7 days, bean plants with hatched nymphs (N-2) are treated (2 replicates) with the test solutions in a spray chamber. Three weeks later, samples are checked for number of emerged adults. Efficacy was calculated by comparing number of emerged adults in treated and non treated samples.

[11] = tested on: Aphis Craccivora (cowpea aphid); assay: Example B10: activity against Aphis craccivora, pea seedling roots in test solution (systemic/feeding); assay type: in vivo; conditions: 144 h, roots of infested pea seedlings in test solution, 6 days
Excerpt: (§1) Activity Against Aphis Craccivora (Cowpea Aphid)
(Mixed Population, Systemic/Feeding)

[12] = tested on: Tetranychus urticae (two-spotted spider mite); assay: Example B4: activity against Tetranychus urticae, sprayed bean leaf discs (feeding/residual contact, preventive); conditions: foliar, 192 h, read-out: activity (egg, larval and adult mortality)
[13] = tested on: Frankliniella occidentalis (western flower thrips); assay: Example B6: activity against Frankliniella occidentalis, bean leaf discs or bean plants; assay type: in vivo; conditions: foliar, 6 days (leaf discs) or 14 days (plants) after infestation, read-out: activity (reduction of treated population)
Experimental: Activity Against Frankliniella occidentalis (Western Flower Thrips)
Bean leaf discs on agar in petri dishes or bean plants in a spray chamber are treated with diluted test solutions. After drying leaf discs are cut and placed in plastic cups on the surface of an agar layer and infested with mixed population. 6 days (leaf discs) or 14 days (plants) after the infestation, samples are checked for reduction of treated population and compared to the non treated population.

[14] = tested on: Aphis Craccivora (cowpea aphid); assay: Example B9: activity against Aphis craccivora, sprayed pea seedlings (contact/feeding); assay type: in vivo; conditions: 144 h, infested pea seedlings sprayed, 6 days
Excerpt: as §1
(Mixed Population, Contact/Feeding)
6 days after treatment, samples are checked for mortality.

SMILES | mortality at 400 ppm [1] [%] | mortality at 400 ppm [2] [%] | pest or weed control at 200 ppm [3] [%] | mortality at 200 ppm [4] [%] | mortality at 25 ppm [5] [%] | mortality at 400 ppm [6] [%] | mortality at 400 ppm [7] [%] | mortality at 400 ppm [8] [%] | mortality at 400 ppm [9] [%] | pest or weed control at 200 ppm [10] [%] | mortality at 400 ppm [11] [%] | mortality at 400 ppm [12] [%] | pest or weed control at 400 ppm [13] [%] | mortality at 400 ppm [14] [%] | melting point [°C]
CCOC(=O)OC1=C(c2c(C)cc(Br)cc2C)C(=O)N(OCOC)C12CCN(OC)CC2 [P1.19] | > 80 | > 80 | > 80 | ≥ 80 | > 80 | > 80 | > 80 | > 80 |  |  |  |  |  |  | 
COCON1C(=O)C(c2c(C)cc(Br)cc2C)=C(O)C12CCN(OC)CC2 [P2.14, 3-(4-bromo-2,6-dimethyl-phenyl)-4-hydroxy-8-methoxy-1-methoxymethoxy-1,8-diaza-spiro[4.5]dec-3-en-2-one] |  |  | > 80 |  | > 80 | > 80 | > 80 | > 80 | > 80 | > 80 | > 80 | > 80 |  |  | 
CCOC(=O)OC1=C(c2c(C)cc(C)cc2C)C(=O)N(OC2CCCO2)C12CCN(OC)CC2 (stereo not drawn) [P1.9, Carbonic acid ethyl ester 8-methoxy-2-oxo-1-(tetrahydro-furan-2-yloxy)-3-(2,4,6-trimethyl-phenyl)-1,8-diaza-spiro[4.5]dec-3-en-4-yl ester] | > 80 | > 80 | > 80 | ≥ 80 | > 80 | > 80 | > 80 | > 80 | > 80 | > 80 | > 80 | > 80 | > 80 |  | 
COCCON1C(=O)C(c2c(C)cc(C)cc2C)=C(O)C12CCN(OC)CC2 [P2.5] |  | > 80 | > 80 |  | > 80 | > 80 | > 80 | > 80 |  | > 80 | > 80 | > 80 |  |  | 
CCOC(=O)OC1=C(c2c(C)cc(C)cc2C)C(=O)N(OC)C12CCN(OC)CC2 [P1.8] | > 80 | > 80 | > 80 | ≥ 80 | > 80 | > 80 | > 80 | > 80 | > 80 | > 80 | > 80 | > 80 |  | > 80 | 
CON1CCC2(CC1)C(O)=C(c1c(C)cc(C)cc1C)C(=O)N2OC [P2.7] |  | > 80 | > 80 | ≥ 80 | > 80 | > 80 | > 80 | > 80 | > 80 | > 80 |  |  |  | > 80 | 
C#CCON1C(=O)C(c2c(C)cc(C)cc2C)=C(O)C12CCN(OC)CC2 [P2.8, 4-Hydroxy-8-methoxy-1-prop-2-ynyloxy-3-(2,4,6-trimethyl-phenyl)-1,8-diaza-spiro[4.5]dec-3-en-2-one] |  | > 80 | > 80 | ≥ 80 | > 80 | > 80 | > 80 | > 80 |  | > 80 | > 80 | > 80 |  |  | 
C=CCON1C(=O)C(c2c(C)cc(C)cc2C)=C(OC(=O)OCC)C12CCN(OC)CC2 [P1.17] |  | > 80 | > 80 | ≥ 80 | > 80 | > 80 | > 80 |  |  | > 80 | > 80 | > 80 |  | > 80 | 
CCOC(=O)OC1=C(c2cc(C)ccc2C)C(=O)N(OCOC)C12CCN(OC)CC2 [P1.2, Carbonic acid 3-(2,5-dimethyl-phenyl)-8-methoxy-1-methoxy-methoxy-2-oxo-1,8-diaza-spiro[4.5]dec-3-en-4-yl ester ethyl ester] | > 80 | > 80 |  | ≥ 80 | > 80 | > 80 | > 80 | > 80 |  | > 80 | > 80 |  |  | > 80 | 
CCOC(=O)OC1=C(c2c(C)cc(C)cc2C)C(=O)N(OCCOC)C12CCN(OC)CC2 [P1.6] |  | > 80 | > 80 |  | > 80 | > 80 | > 80 | > 80 |  | > 80 |  | > 80 |  |  | 
CON1CCC2(CC1)C(O)=C(c1c(C)cc(C)cc1C)C(=O)N2OC1CCCO1 (stereo not drawn) [P2.18, 4-Hydroxy-8-methoxy-1-(tetrahydro-furan-2-yloxy)-3-(2,4,6-trimethyl-phenyl)-1,8-diaza-spiro[4.5]dec-3-en-2-one] |  | > 80 | > 80 | ≥ 80 | > 80 | > 80 | > 80 | > 80 | > 80 | > 80 | > 80 | > 80 |  |  | 
CON1CCC2(CC1)C(O)=C(c1c(C)cc(C)cc1C)C(=O)N2O [P2.4, 1,4-Dihydroxy-8-methoxy-3-(2,4,6-trimethyl-phenyl)-1,8-diaza-spiro[4.5]dec-3-en-2-one] | > 80 |  |  |  | > 80 | > 80 | > 80 | > 80 |  | > 80 |  | > 80 |  |  | 
CCOC(=O)OC1=C(c2c(C)cccc2C)C(=O)N(OC)C12CCN(OC)CC2 [P1.74] | > 80 |  |  |  |  |  | > 80 | > 80 | > 80 |  |  | > 80 |  |  | 
CON1CCC2(CC1)C(O)=C(c1cc(C)c(C)cc1Cl)C(=O)N2OC1CCCO1 (stereo not drawn) [P2.63] | > 80 |  |  | ≥ 80 |  |  |  |  |  |  |  |  |  |  | 
CON1CCC2(CC1)C(O)=C(c1cc(Br)c(C)cc1C)C(=O)N2OC [P2.75] |  |  |  |  |  |  |  |  |  |  |  |  |  |  | 86 to 87
CCOC(=O)OC1=C(c2c(C)cc(Cl)cc2C)C(=O)N(OC)C12CCN(OC)CC2 [P1.114] |  |  |  |  |  |  |  |  |  |  |  |  |  |  | 122 to 125
CON1CCC2(CC1)C(O)=C(c1c(C)cc(Cl)cc1C)C(=O)N2OC [P2.102] |  |  |  |  |  |  |  |  |  |  |  |  |  |  | 88 to 92
COCON1C(=O)C(c2cc(C)ccc2C)=C(OC(=O)CC(C)(C)C)C12CCN(OC)CC2 [P1.5] |  |  |  |  |  |  |  |  |  |  |  |  |  |  | 93 to 95
